Measured values: US20170050957A1, “4-AMINO-6-(HETEROCYCLIC)PICOLINATES AND 6-AMINO-2-(HETEROCYCLIC)PYRIMIDINE-4-CARBOXYLATES AND THEIR USE AS HERBICIDES” (Dow AgroSciences LLC, priority 2013, published 2017)
Read-outs that look alike come from different tables or passages of the source.

Tests used:
[1] = test system: Key Broadleaf Weed and Crop Species; assay: Post-emergent Test II herbicidal activity (Table 15); format: in vivo; details: post-emergence, 336 h, 14 d; for pest or weed control at 35 g/ha: 35 g ai/ha; for pest or weed control at 70 g/ha: 70 g ai/ha; for pest or weed control at 140 g/ha: 140 g ai/ha
How it was run: (§1)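 Plants grown in greenhouse (~15 h photoperiod, 23-29 °C day, 22-28 °C night) to first or second true leaf stage, then sprayed post-emergence at 187 L/ha with a high rate and 1/2×, 1/4×, 1/8× and 1/16× dilutions. Injury scored visually after 14 d, 0-100% versus untreated plants.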

[2] = test system: Key Grass and Sedge Weeds as well as Grass Crops; assay: Post-emergent Test II herbicidal activity (Table 16); format: in vivo; details: post-emergence, 336 h, 14 d; for pest or weed control at 35 g/ha: 35 g ai/ha; for pest or weed control at 70 g/ha: 70 g ai/ha; for pest or weed control at 140 g/ha: 140 g ai/ha
How it was run: as §1

[3] = Abutilon theophrasti, velvetleaf (Abutilon theophrasti), read-out: Visual Growth Reduction (%) 14 Days After Application, ABUTH
[4] = Amaranthus retroflexus, redroot pigweed (Amaranthus retroflexus), read-out: Visual Growth Reduction (%) 14 Days After Application, AMARE
[5] = Brassica napus, oilseed rape, canola (Brassica napus), read-out: Visual Growth Reduction (%) 14 Days After Application, BRSNN
[6] = Chenopodium album, lambsquarters (Chenopodium album), read-out: Visual Growth Reduction (%) 14 Days After Application, CHEAL
[7] = Euphorbia heterophylla, wild poinsettia (Euphorbia heterophylla), read-out: Visual Growth Reduction (%) 14 Days After Application, EPHHL
[8] = Helianthus annuus, sunflower (Helianthus annuus), read-out: Visual Growth Reduction (%) 14 Days After Application, HELAN
[9] = Cyperus esculentus, yellow nutsedge (Cyperus esculentus), read-out: Visual Growth Reduction (%) 14 Days After Application, CYPES
[10] = Echinochloa crus-galli, barnyardgrass (Echinochloa crus-galli), read-out: Visual Growth Reduction (%) 14 Days After Application, ECHCG
[11] = Oryza sativa, rice (Oryza sativa), read-out: Visual Growth Reduction (%) 14 Days After Application, ORYSA
[12] = Setaria faberi, giant foxtail (Setaria faberi), read-out: Visual Growth Reduction (%) 14 Days After Application, SETFA
[13] = Triticum aestivum, wheat, spring (Triticum aestivum), read-out: Visual Growth Reduction (%) 14 Days After Application, TRZAS
[14] = Zea mays, maize, corn (Zea mays), read-out: Visual Growth Reduction (%) 14 Days After Application, ZEAMX

Compound	pest or weed control at 35 g/ha [1, 3]	pest or weed control at 70 g/ha [1, 3]	pest or weed control at 140 g/ha [1, 3]	pest or weed control at 35 g/ha [1, 4]	pest or weed control at 70 g/ha [1, 4]	pest or weed control at 140 g/ha [1, 4]	pest or weed control at 35 g/ha [1, 5]	pest or weed control at 70 g/ha [1, 5]	pest or weed control at 140 g/ha [1, 5]	pest or weed control at 35 g/ha [1, 6]	pest or weed control at 70 g/ha [1, 6]	pest or weed control at 140 g/ha [1, 6]	pest or weed control at 35 g/ha [1, 7]	pest or weed control at 70 g/ha [1, 7]	pest or weed control at 140 g/ha [1, 7]	pest or weed control at 35 g/ha [1, 8]	pest or weed control at 70 g/ha [1, 8]	pest or weed control at 140 g/ha [1, 8]	pest or weed control at 35 g/ha [2, 9]	pest or weed control at 70 g/ha [2, 9]	also measured
COC(=O)c1nc(-c2c(F)cc3cc[nH]c3c2F)cc(N)c1Cl [Compound 1.27, Methyl 4-amino-3-chloro-6-(5,7-difluoro-1H-indol-6-yl)picolinate]	60 to 74%	85 to 94%	85 to 94%	60 to 74%	95 to 100%	95 to 100%	85 to 94%	95 to 100%	95 to 100%	85 to 94%	85 to 94%	85 to 94%	95 to 100%	95 to 100%	95 to 100%	0 to 29%	0 to 29%	0 to 29%	0 to 29%	0 to 29%	pest or weed control at 140 g/ha [2, 9]: 0 to 29%; pest or weed control at 35 g/ha [2, 10]: 0 to 29%; pest or weed control at 70 g/ha [2, 10]: 0 to 29%; pest or weed control at 140 g/ha [2, 10]: 0 to 29%; pest or weed control at 35 g/ha [2, 11]: 0 to 29%; pest or weed control at 70 g/ha [2, 11]: 0 to 29%; pest or weed control at 140 g/ha [2, 11]: 0 to 29%; pest or weed control at 35 g/ha [2, 12]: 0 to 29%; pest or weed control at 70 g/ha [2, 12]: 0 to 29%; pest or weed control at 140 g/ha [2, 12]: 0 to 29%; pest or weed control at 35 g/ha [2, 13]: 0 to 29%; pest or weed control at 70 g/ha [2, 13]: 0 to 29%; pest or weed control at 140 g/ha [2, 13]: 0 to 29%; pest or weed control at 35 g/ha [2, 14]: 0 to 29%; pest or weed control at 70 g/ha [2, 14]: 0 to 29%; pest or weed control at 140 g/ha [2, 14]: 0 to 29%; melting point: 169 to 171 °C
Nc1cc(-c2ccc3cc[nH]c3c2F)nc(C(=O)O)c1Cl [Compound 1.24]	85 to 94%	95 to 100%	95 to 100%	95 to 100%	95 to 100%	95 to 100%	85 to 94%	45 to 59%	95 to 100%	85 to 94%	95 to 100%	95 to 100%	95 to 100%	95 to 100%	95 to 100%	60 to 74%	75 to 84%	85 to 94%	0 to 29%	0 to 29%	pest or weed control at 140 g/ha [2, 9]: 0 to 29%; pest or weed control at 35 g/ha [2, 10]: 0 to 29%; pest or weed control at 70 g/ha [2, 10]: 0 to 29%; pest or weed control at 140 g/ha [2, 10]: 0 to 29%; pest or weed control at 35 g/ha [2, 11]: 0 to 29%; pest or weed control at 70 g/ha [2, 11]: 0 to 29%; pest or weed control at 140 g/ha [2, 11]: 0 to 29%; pest or weed control at 35 g/ha [2, 12]: 0 to 29%; pest or weed control at 70 g/ha [2, 12]: 45 to 59%; pest or weed control at 140 g/ha [2, 12]: 60 to 74%; pest or weed control at 35 g/ha [2, 13]: 0 to 29%; pest or weed control at 70 g/ha [2, 13]: 30 to 44%; pest or weed control at 140 g/ha [2, 13]: 45 to 59%; pest or weed control at 35 g/ha [2, 14]: 0 to 29%; pest or weed control at 70 g/ha [2, 14]: 0 to 29%; pest or weed control at 140 g/ha [2, 14]: 0 to 29%
COC(=O)c1nc(-c2ccc3cc[nH]c3c2F)nc(N)c1OC [Compound 1.34]	0 to 29%	0 to 29%	0 to 29%	0 to 29%	0 to 29%	30 to 44%	75 to 84%	85 to 94%	95 to 100%	0 to 29%	45 to 59%	60 to 74%	0 to 29%	0 to 29%	60 to 74%	85 to 94%	95 to 100%	95 to 100%	0 to 29%	0 to 29%	pest or weed control at 140 g/ha [2, 9]: 0 to 29%; pest or weed control at 35 g/ha [2, 10]: 0 to 29%; pest or weed control at 70 g/ha [2, 10]: 0 to 29%; pest or weed control at 140 g/ha [2, 10]: 0 to 29%; pest or weed control at 35 g/ha [2, 11]: 0 to 29%; pest or weed control at 70 g/ha [2, 11]: 0 to 29%; pest or weed control at 140 g/ha [2, 11]: 0 to 29%; pest or weed control at 35 g/ha [2, 12]: 0 to 29%; pest or weed control at 70 g/ha [2, 12]: 0 to 29%; pest or weed control at 140 g/ha [2, 12]: 60 to 74%; pest or weed control at 35 g/ha [2, 13]: 0 to 29%; pest or weed control at 70 g/ha [2, 13]: 0 to 29%; pest or weed control at 140 g/ha [2, 13]: 30 to 44%; pest or weed control at 35 g/ha [2, 14]: 0 to 29%; pest or weed control at 70 g/ha [2, 14]: 0 to 29%; pest or weed control at 140 g/ha [2, 14]: 0 to 29%
